According to ChEMBL document CHEMBL1158501, “Synthesis and structure-activity relationships of novel furazan-3,4-diamide analogs as potent anti-cancer agents” (Bioorg Med Chem Lett, 2010):

Key:
U-87 MG [1] = assay: Inhibition of human U87MG cells after 48 hrs; assay type: functional, cell-based, U-87MG ATCC
SW480 [2] = assay: Inhibition of human SW480 cells after 48 hrs; assay type: functional, cell-based; conditions: SW480, 48 h
SW480 [3] = assay: Inhibition of human SW480 cells at >= IC50 after 48 hrs; assay type: functional
U-87 MG [4] = assay: Inhibition of human U87MG cells at >= IC50 after 48 hrs; assay type: functional, U-87MG ATCC

SMILES	IC50 (U-87 MG [1]) [µM]	IC50 (SW480 [2]) [µM]	inhibition (INH) (SW480 [3]) [%]	inhibition (INH) (U-87 MG [4]) [%]
COc1ccc(C(=O)Nc2nonc2NC(=O)c2ccc(OC)cc2)cc1	> 40	> 40	–	–
O=C(CN1CCOCC1)Nc1nonc1NC(=O)CN1CCOCC1	> 200	> 200	–	–
O=C(Nc1nonc1NC(=O)C1CCCCC1)C1CCCCC1	> 20	> 20	–	–
O=C(Nc1nonc1NC(=O)c1ccc(Cl)c(Cl)c1)c1ccc(Cl)c(Cl)c1	24	39.7	–	–
O=C(Nc1nonc1NC(=O)c1ccco1)c1ccco1	> 200	> 200	–	–
O=C(Nc1nonc1NC(=O)c1ccc(F)cc1)c1ccc(F)cc1	6	10	50	–
O=C(Nc1nonc1NC(=O)c1ccc(Cl)cc1)c1ccc(Cl)cc1	14	8	50	70
O=C(Nc1nonc1NCc1ccc(C(F)(F)F)cc1)c1ccc(C(F)(F)F)cc1	18.2	18.5	–	–
FC(F)(F)c1ccc(CNc2nonc2NCc2ccc(C(F)(F)F)cc2)cc1	20.6	22.9	–	–
O=C(Nc1nonc1NC(=O)C1CCCC1)C1CCCC1	> 200	> 200	–	–
CC(C)=CC(=O)Nc1nonc1NC(=O)C=C(C)C	> 200	> 200	–	–
O=C(Nc1nonc1NC(=O)c1ccccc1)c1ccccc1	122	137	–	–
O=C(Nc1ccccc1NC(=O)c1ccc(C(F)(F)F)cc1)c1ccc(C(F)(F)F)cc1	> 8	> 8	–	–
O=C(Nc1nonc1NC(=O)c1ccc(Br)cc1)c1ccc(Br)cc1	14	4	50	77
O=C(Nc1n[nH]c(O)c1NC(=O)c1ccc(C(F)(F)F)cc1)c1ccc(C(F)(F)F)cc1	> 200	> 200	–	–
O=C(Nc1nonc1NC(=O)c1cc(C(F)(F)F)cc(C(F)(F)F)c1)c1cc(C(F)(F)F)cc(C(F)(F)F)c1	17.7	10.8	–	–
O=C(Nc1cscc1NC(=O)c1ccc(C(F)(F)F)cc1)c1ccc(C(F)(F)F)cc1	> 8	> 8	–	–
O=C(Nc1nonc1NC(=O)c1c(F)c(F)c(F)c(F)c1F)c1c(F)c(F)c(F)c(F)c1F	25.5	17.2	–	–
O=C(Nc1nonc1NC(=O)c1ccccc1C(F)(F)F)c1ccccc1C(F)(F)F	> 100	89.3	–	–
O=C(Nc1nonc1NC(=O)c1cccc(C(F)(F)F)c1)c1cccc(C(F)(F)F)c1	> 10	> 10	–	–
Nc1nonc1NC(=O)c1ccc(C(F)(F)F)cc1	> 200	> 200	–	–
O=C(CCl)Nc1nonc1NC(=O)CCl	17.1	7.4	–	–
O=C(Nc1nonc1NC(=O)C(Cl)(Cl)Cl)C(Cl)(Cl)Cl	> 200	> 200	–	–
O=C(Nc1nonc1NC(=O)c1ccc(C(F)(F)F)cc1)c1ccc(C(F)(F)F)cc1	14.6	11.2	–	–
O=C(Nc1nonc1NC(=O)c1ccc(I)cc1)c1ccc(I)cc1	1	2	50	70
Cc1ccc(C(=O)Nc2nonc2NC(=O)c2ccc(C)cc2)cc1	> 40	> 40	–	–
COc1cccc(C(=O)Nc2nonc2NC(=O)c2cccc(OC)c2)c1	70.7	71	–	–
